Measured values published in ChEMBL document CHEMBL1201862, “PubChem BioAssay data set” (2004).
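Test compounds were applied to cells in 96-well plates for 48 hours at 5 doses. GI50 is the concentration that inhibits growth by half.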 Activity calls are given as the source filed them. No stated cut-off is given here; in the data, active = GI50 up to about 1.1 µM and inactive = higher.

Assays:
Assay in all cases: NCI anticancer screen, dose series, 48 h
[1] = tested on: 786-0
[2] = tested on: ACHN
[3] = tested on: HL-60
[4] = tested on: IGROV-1
[5] = tested on: K562
[6] = tested on: KM12
[7] = tested on: M19-MEL
[8] = tested on: MOLT-4
[9] = tested on: NCI-H226
[10] = tested on: OVCAR-4
[11] = tested on: SF-295
[12] = tested on: SK-MEL-28
[13] = tested on: SN12C
[14] = tested on: UACC-257
[15] = tested on: HCT-15

Structure (SMILES) | GI50 [1] | GI50 [2] | GI50 [3] | GI50 [4] | GI50 [5] | GI50 [6] | GI50 [7] | GI50 [8] | GI50 [9] | GI50 [10] | GI50 [11] | GI50 [12] | GI50 [13] | GI50 [14] | GI50 [15] [µM]
Fc1ccc2c(c1)cc1ccc3cccc4ccc2c1c34 | > 100 µM (inactive) | > 100 µM (inactive) | > 100 µM (inactive) | > 100 µM (inactive) | > 100 µM (inactive) | > 100 µM (inactive) | > 100 µM (inactive) | > 100 µM (inactive) | > 100 µM (inactive) | > 100 µM (inactive) | > 100 µM (inactive) | > 100 µM (inactive) | > 100 µM (inactive) | > 100 µM (inactive) | 
CC12CO[C@@](C)(CC(S(=O)(=O)c3ccccc3)C1)O2 (stereo partly drawn) | > 100 µM (inactive) | > 100 µM (inactive) | > 100 µM (inactive) | > 100 µM (inactive) | > 100 µM (inactive) | > 100 µM (inactive) | > 100 µM (inactive) | > 100 µM (inactive) |  | > 100 µM (inactive) | > 100 µM (inactive) | > 100 µM (inactive) | > 100 µM (inactive) | > 100 µM (inactive) | > 100
C/C(=C\C(C[C@](C)(O)C(O)CCC#C[Si](C)(C)C)S(=O)(=O)c1ccccc1)CC/C=C/CO[Si](C)(C)C(C)(C)C (stereo partly drawn) | 17 µM (inactive) | 16 µM (inactive) | 14.9 µM (inactive) | 20.8 µM (inactive) | 10.7 µM (inactive) | 16.8 µM (inactive) | 17.2 µM (inactive) | 6.95 µM (inactive) | 22.1 µM (inactive) | 13.8 µM (inactive) | 16.5 µM (inactive) |  | 6.24 µM (inactive) | 17.3 µM (inactive) | 17.4
CN(CC(=O)O)S(=O)(=O)c1ccc2ccccc2c1 | > 100 µM (inactive) | > 100 µM (inactive) | > 100 µM (inactive) | > 100 µM (inactive) | > 100 µM (inactive) | > 100 µM (inactive) | > 100 µM (inactive) | > 100 µM (inactive) |  | > 100 µM (inactive) | > 100 µM (inactive) | > 100 µM (inactive) | > 100 µM (inactive) | > 100 µM (inactive) | > 100
CCCCCCCCCCCCC(Br)C(=O)SCCNC(=O)CCNC(=O)[C@@H](O)C(C)(C)COP(=O)(O)OP(=O)(O)OCC1OC(n2cnc3c(N)ncnc32)C(O)C1OP(=O)(O)O (stereo partly drawn) | > 56.5 µM (inactive) | > 56.5 µM (inactive) | > 56.5 µM (inactive) | > 56.5 µM (inactive) |  | > 56.5 µM (inactive) | > 56.5 µM (inactive) |  | > 56.5 µM (inactive) | > 56.5 µM (inactive) | > 56.5 µM (inactive) | > 56.5 µM (inactive) | > 56.5 µM (inactive) | 14.6 µM (inactive) | > 56.5
CNS(=O)(=O)NN(C)S(=O)(=O)c1ccccc1 | > 100 µM (inactive) | > 100 µM (inactive) | > 100 µM (inactive) | > 100 µM (inactive) | > 100 µM (inactive) | > 100 µM (inactive) | > 100 µM (inactive) | > 100 µM (inactive) | > 100 µM (inactive) | > 100 µM (inactive) | > 100 µM (inactive) |  | > 100 µM (inactive) | > 100 µM (inactive) | > 100
CC(C)(C)N/N=C(\C(=O)Nc1cccc(Cl)c1)C1C(=O)Nc2ccccc2[S+]1[O-] (stereo not drawn) | > 100 µM (inactive) | > 100 µM (inactive) | > 100 µM (inactive) | > 100 µM (inactive) |  | > 100 µM (inactive) | > 100 µM (inactive) | > 100 µM (inactive) | > 100 µM (inactive) | > 100 µM (inactive) | > 100 µM (inactive) | > 100 µM (inactive) | > 100 µM (inactive) | > 100 µM (inactive) | > 100
CC1=C(C(=O)Nc2ccccc2)C(c2ccccc2)C(C(=O)Nc2ccccc2)=C(C)N1 | 76.4 µM (inactive) | 17.6 µM (inactive) | 16.3 µM (inactive) | 75.9 µM (inactive) |  | 17.3 µM (inactive) | 28.9 µM (inactive) | 18.7 µM (inactive) | > 100 µM (inactive) | 60.7 µM (inactive) | 38.5 µM (inactive) | 55.8 µM (inactive) | > 100 µM (inactive) | 36.1 µM (inactive) | 23.4
C#C[C@]1(O)CCC2C3CCc4cc(Oc5nc(F)nc(-n6c(C)nc7cc8ccccc8cc76)n5)ccc4C3CCC21C (stereo partly drawn) | 57 µM (inactive) | 61.4 µM (inactive) | 31.1 µM (inactive) | 54.3 µM (inactive) | 34 µM (inactive) | 32.7 µM (inactive) | 37.1 µM (inactive) | 27.4 µM (inactive) | 47.8 µM (inactive) |  | 33.8 µM (inactive) | > 10 µM (inactive) | 37.5 µM (inactive) | 86.5 µM (inactive) | 
C=C(C)CC(C)(c1cc2ccccc2n1C)N1CCOCC1 (stereo not drawn) | > 100 µM (inactive) | 62.2 µM (inactive) | 57 µM (inactive) | 75.7 µM (inactive) |  | 38.4 µM (inactive) | > 100 µM (inactive) | 40.3 µM (inactive) | 69.8 µM (inactive) | > 100 µM (inactive) | > 100 µM (inactive) | > 100 µM (inactive) | 93.5 µM (inactive) | 95.1 µM (inactive) | 75.7
